target: LRRK2, WT (GST-tagged truncated LRRK2) (Homo sapiens (Human), UniProt Q5S007); assay: LRRK2 kinase assay (Lantha Screen), wild type; type: biochemical; details: 100 nM LRRKtide, 1 mM ATP, 2 μg/mL enzyme; geometric mean of 2-4 determinations unless otherwise indicated
Experimental: LRRK2 kinase activity was measured using Lantha Screen technology from Invitrogen. GST-tagged truncated LRRK2 from Invitrogen (Cat #PV4874) was incubated with a fluorescein-labeled peptide substrate based upon ezrin/radixin/moesin (ERM), also known as LRRKtide (Invitrogen cat #PR8976A), in the presence of a dose response of compound. Upon completion, the assay was stopped and detected with a terbium labeled anti-phospho-ERM antibody (Invitrogen, cat #PR8975A). The assay was carried out under the following protocol: The compound dose response was prepared by diluting compound to a top concentration of 0.3 mM in 100% DMSO and serial diluted by half-log in DMSO to give an 11 point curve, 100× final assay concentration. Using Echo acoustic dispensing, 60 nL of compound was transferred to a low volume Corning 384-well assay plate. 3 μL of a working solution of substrate (200 nM LRRKtide, 2 mM ATP) prepared in assay buffer (50 mM HEPES, pH 7.5, 3 mM MgCl2, with 2 mM DTT and 0.01% Brij35 added fresh) was added to the 60 nL compound assay plate. The kinase reaction was started with 3 μL of a working solution of LRRK2 enzyme at a concentration of 4 μg/mL. The final reaction concentrations were 100 nM LRRKtide, 1 mM ATP, 2 μg/mL LRRK2 enzyme and a compound dose response with a top dose of 3 μM. The reaction was allowed to progress at room temperature for 30 minutes and then stopped with the addition of 6 μL of detection buffer (20 mM Tris pH 7.6, 0.01% NP-40, 6 mM EDTA with 2 nM terbium labeled anti-phospho-ERM). After an incubation of 1 hour at room temperature, the plate was read on an Envision with an excitation wavelength of 340 nm and a reading emission at both 520 nm and 495 nm. The ratio of the 520 nm and 495 nm emission was used to analyze the data. Inhibition of mutant G2019S LRRK2 (Invitrogen cat #PV4881) was measured in the exact same method. All final concentrations of substrate ATP and enzyme were the same.

LRRK2, WT (GST-tagged truncated LRRK2), sequence (Q5S007 970-2527): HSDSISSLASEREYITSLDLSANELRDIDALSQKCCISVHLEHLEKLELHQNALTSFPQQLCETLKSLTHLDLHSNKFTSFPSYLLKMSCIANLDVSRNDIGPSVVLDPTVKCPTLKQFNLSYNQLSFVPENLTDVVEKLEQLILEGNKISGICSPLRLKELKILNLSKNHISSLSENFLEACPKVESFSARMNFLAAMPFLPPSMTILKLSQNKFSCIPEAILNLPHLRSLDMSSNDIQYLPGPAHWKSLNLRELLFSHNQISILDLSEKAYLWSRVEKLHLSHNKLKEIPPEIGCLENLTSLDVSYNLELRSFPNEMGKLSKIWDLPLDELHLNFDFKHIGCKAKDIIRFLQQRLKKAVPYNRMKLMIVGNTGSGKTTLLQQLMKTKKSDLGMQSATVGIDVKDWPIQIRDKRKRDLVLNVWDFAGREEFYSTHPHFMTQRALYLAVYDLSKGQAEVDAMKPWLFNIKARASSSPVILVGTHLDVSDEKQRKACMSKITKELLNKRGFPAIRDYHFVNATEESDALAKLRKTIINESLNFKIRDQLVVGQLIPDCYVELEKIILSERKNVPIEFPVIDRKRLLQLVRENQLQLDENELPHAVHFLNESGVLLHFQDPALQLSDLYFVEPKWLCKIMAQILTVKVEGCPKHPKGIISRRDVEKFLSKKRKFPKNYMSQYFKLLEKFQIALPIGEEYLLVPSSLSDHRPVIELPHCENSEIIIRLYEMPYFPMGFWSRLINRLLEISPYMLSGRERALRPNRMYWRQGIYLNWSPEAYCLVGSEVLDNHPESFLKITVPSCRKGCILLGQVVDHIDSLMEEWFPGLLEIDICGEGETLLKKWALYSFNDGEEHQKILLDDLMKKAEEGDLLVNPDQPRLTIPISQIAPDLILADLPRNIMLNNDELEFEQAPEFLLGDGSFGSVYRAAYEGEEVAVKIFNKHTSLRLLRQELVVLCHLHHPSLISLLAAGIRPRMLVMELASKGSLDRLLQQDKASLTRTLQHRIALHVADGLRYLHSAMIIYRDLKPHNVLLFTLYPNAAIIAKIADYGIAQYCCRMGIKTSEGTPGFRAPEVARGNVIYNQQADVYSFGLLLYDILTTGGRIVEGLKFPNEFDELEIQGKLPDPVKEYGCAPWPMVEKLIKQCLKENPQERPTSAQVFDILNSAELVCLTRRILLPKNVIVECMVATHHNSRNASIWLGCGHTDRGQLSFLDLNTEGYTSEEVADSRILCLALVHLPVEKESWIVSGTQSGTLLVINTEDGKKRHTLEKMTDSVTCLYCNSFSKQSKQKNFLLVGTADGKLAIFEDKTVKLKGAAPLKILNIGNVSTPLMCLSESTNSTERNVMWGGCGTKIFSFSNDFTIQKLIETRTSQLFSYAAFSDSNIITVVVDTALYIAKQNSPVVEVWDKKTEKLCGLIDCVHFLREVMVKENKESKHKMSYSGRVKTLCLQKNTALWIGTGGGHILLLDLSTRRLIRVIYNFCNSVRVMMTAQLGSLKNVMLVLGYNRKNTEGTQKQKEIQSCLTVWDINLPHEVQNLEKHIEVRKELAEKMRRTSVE

IC50 | Structure (SMILES)
> 1840 nM | CN1CC(n2c(C3CCC(F)C3)nc3cnc4ccc(C#N)cc4c32)C(F)(F)C1 (stereo not shown) [Example 63, 1-(4,4-difluoro-1-methylpyrrolidin-3-yl)-2-(3-fluorocyclopentyl)-1H-imidazo[4,5-c]quinoline-8-carbonitrile]
2140 nM | N#Cc1ccc2ncc3nc([C@H]4C[C@H](F)C4)n(C4CCOCC4(F)F)c3c2c1 (stereo partly drawn) [Example 45, 1-(3,3-difluorotetrahydro-2H-pyran-4-yl)-2-(trans-3-fluorocyclobutyl)-1H-imidazo[4,5-c]quinoline-8-carbonitrile]
202 nM | C[C@@H]1C[C@H](n2c(C3CCC(F)C3)nc3cnc4ccc(F)cc4c32)CCO1 (stereo partly drawn) [Example 38, 8-fluoro-2-[trans-3-fluorocyclopentyl]-1-[(2R,4R)-2-methyltetrahydro-2H-pyran-4-yl]-1H-imidazo[4,5-c]quinoline]
413 nM | CC1(C)C[C@H](n2c([C@H]3CC[C@H](F)C3)nc3cnc4ccc(C#N)cc4c32)CCO1 [Example 53, 1-[(4R)-2,2-dimethyltetrahydro-2H-pyran-4-yl]-2-[(1S,3S)-3-fluorocyclopentyl]-1H-imidazo[4,5-c]quinoline-8-carbonitrile]
> 3000 nM | CC1(C)C[C@H](n2c([C@H]3CC[C@@H](F)C3)nc3cnc4ccc(C#N)cc4c32)CCO1 [Example 56, 1-[(4R)-2,2-dimethyltetrahydro-2H-pyran-4-yl]-2-[(1S,3R)-3-fluorocyclopentyl]-1H-imidazo[4,5-c]quinoline-8-carbonitrile]
> 3000 nM | CN1CC(n2c(C3CCC(F)C3)nc3cnc4ccc(C#N)cc4c32)C(F)(F)C1 (stereo not shown) [Example 62, 1-(4,4-difluoro-1-methylpyrrolidin-3-yl)-2-(3-fluorocyclopentyl)-1H-imidazo[4,5-c]quinoline-8-carbonitrile]
16.6 nM | C[C@@H]1C[C@H](n2c([C@H]3CCOC3)nc3cnc4ccc(C(F)F)cc4c32)CCO1 [Example 21, 8-(difluoromethyl)-1-((2R,4R)-2-methyltetrahydro-2H-pyran-4-yl)-2-((R)-tetrahydrofuran-3-yl)-1H-imidazo[4,5-c]quinoline]
200 nM | C[C@@H]1C[C@H](n2c(C3CCC(F)C3)nc3cnc4ccc(F)cc4c32)CCO1 (stereo partly drawn) [Example 37, 8-fluoro-2-[trans-3-fluorocyclopentyl]-1-[(2R,4R)-2-methyltetrahydro-2H-pyran-4-yl]-1H-imidazo[4,5-c]quinoline]
464 nM | CN1CC(n2c(C3CCC(F)C3)nc3cnc4ccc(C#N)cc4c32)C(F)(F)C1 (stereo not shown) [Example 61, 1-(4,4-difluoro-1-methylpyrrolidin-3-yl)-2-(3-fluorocyclopentyl)-1H-imidazo[4,5-c]quinoline-8-carbonitrile]
> 3000 nM | CO[C@H]1C[C@H](c2nc3cnc4ccc(C#N)cc4c3n2C2CCOCC2(F)F)C1 (stereo partly drawn) [Example 50, 1-(3,3-difluorotetrahydro-2H-pyran-4-yl)-2-(trans-3-methoxycyclobutyl)-1H-imidazo[4,5-c]quinoline-8-carbonitrile]
272 nM | CO[C@H]1C[C@H](c2nc3cnc4ccc(C#N)cc4c3n2C2CCOCC2(F)F)C1 (stereo partly drawn) [Example 51, 1-(3,3-difluorotetrahydro-2H-pyran-4-yl)-2-(trans-3-methoxycyclobutyl)-1H-imidazo[4,5-c]quinoline-8-carbonitrile]
2520 nM | CC1(C)C[C@H](n2c([C@@H]3CC[C@@H](F)C3)nc3cnc4ccc(C#N)cc4c32)CCO1 [Example 55, 1-[(4R)-2,2-dimethyltetrahydro-2H-pyran-4-yl]-2-[(1R,3R)-3-fluorocyclopentyl]-1H-imidazo[4,5-c]quinoline-8-carbonitrile]
> 3000 nM | CC1(C)C[C@H](n2c([C@@H]3CC[C@H](F)C3)nc3cnc4ccc(C#N)cc4c32)CCO1 [Example 54, 1-[(4R)-2,2-dimethyltetrahydro-2H-pyran-4-yl]-2-[(1R,3S)-3-fluorocyclopentyl]-1H-imidazo[4,5-c]quinoline-8-carbonitrile]
